# Where “and” joins values, the source holds several entries; their conditions need not be identical. Equal values may be shown once. Entries after “also recorded” stand apart in the source; their conditions may differ.
# Columns and labels:
# CK1α [1] = target: T1, CK1α (Homo sapiens, UniProt P48729); assay: Western blot of CK1α in UISO cells; type: cell-based; conditions: lenalidomide 10 μM, 24 hours
# Source text: Of note, UISO has less MDM2 and MDM4 proteins than MKL-1.
# MKL-1 MCC xenografts = assay: Xenograft efficacy study; conditions: individual animals, oral daily, HDM201 40 mg/kg and/or lenalidomide 50 mg/kg; for Tumor Volume Change, Abs Ch = T − T0: tumor volumes in mm3
# Source text: The study was terminated when the tumor volume reached the maximum permissible size of 2000 mm3.
# CK1α [2] = target: T1, CK1α; assay: Western blot of CK1α protein levels in MKL-1 cells; type: cell-based; conditions: IMiD 10 μM
# Protocol: Confluent cultures of cells were washed with ice-cold phosphate-buffered saline (PBS) and resuspended in EBC lysis buffer (50 mM Tris, pH 8.0, 150 mM NaCl, 0.5% NP-40, 1:10,000-mercaptoethanol, 0.5 mM EDTA) for 10 min on ice and then centrifuged. Clarified lysates were incubated overnight with antibodies and magnetic protein A/G beads (PureProteome magnetic beads, EMD Millipore). […] Quantitative western blotting was performed using the Odyssey near-infrared system (Li-Cor Biotechnology).
# MKL-1 MCC cells = assay: XTT cell viability assay and synergy testing, MKL-1 cells; type: cell-based; conditions: 96 hours; for Response-rep1 / Response-rep2: HDM201 0 nM; for relative viability (XTT), untreated = 1: combinations with a fixed amount of Lenalidomide (5 uM), replicate columns; for Response: relative viability vs untreated
# Protocol: Cell viability assays were performed using Cell Proliferation Kit II (XTT) (Roche) according to the manufacturer's instructions and BH3 profiling was described in Pallis et al. (36). Synergy testing was performed using Compusyn and Synergyfinder (28, 29).
# The XTT assay was performed to determine the relative viability (% response) normalized to untreated cells.
# MDM4 binding to p53 = assay: Immunoprecipitation of MDM4, p53 and CK1α from MKL-1 lysates; type: cell-based; conditions: MKL-1 cells; nutlin-3 5 μM, lenalidomide 10 μM, 40 hours
# Protocol: (§1) Confluent cultures of cells were washed with ice-cold phosphate-buffered saline (PBS) and resuspended in EBC lysis buffer (50 mM Tris, pH 8.0, 150 mM NaCl, 0.5% NP-40, 1:10,000-mercaptoethanol, 0.5 mM EDTA) for 10 min on ice and then centrifuged. Clarified lysates were incubated overnight with antibodies and magnetic protein A/G beads (PureProteome magnetic beads, EMD Millipore). […] Mouse monoclonal antibodies Ab3 and Ab5 against MCV T antigens were generated against MCV large T antigen residues 1 to 260 and produced as a glutathione S-transferase (GST) fusion protein in bacteria (17). Quantitative western blotting was performed using the Odyssey near-infrared system (Li-Cor Biotechnology).
# p53 = assay: Western blot of p53 activation in MKL-1 cells; type: cell-based; conditions: 24-40 hours
# Protocol: as §1
# T1 sequence (P48729 whole entry): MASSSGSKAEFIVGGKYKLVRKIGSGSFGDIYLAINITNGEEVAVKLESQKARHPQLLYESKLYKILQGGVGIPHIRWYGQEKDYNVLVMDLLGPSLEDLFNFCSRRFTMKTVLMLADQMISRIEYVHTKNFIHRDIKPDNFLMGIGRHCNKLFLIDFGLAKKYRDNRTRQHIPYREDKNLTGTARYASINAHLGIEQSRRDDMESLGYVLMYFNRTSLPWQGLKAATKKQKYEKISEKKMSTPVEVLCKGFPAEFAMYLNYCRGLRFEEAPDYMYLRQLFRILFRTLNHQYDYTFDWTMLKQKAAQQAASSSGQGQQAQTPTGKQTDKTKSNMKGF
structure (smiles),measurement,setting,value
"Nc1cccc2c1CN(C1CCC(=O)NC1=O)C2=O (racemic) [Lenalidomide, (RS)-3-(7-Amino-3-oxo-1H-isoindol-2-yl)piperidin-2,6-dion]",CK1α levels,CK1α [1],depletes CK1α
same,CK1α levels,CK1α [1]; listed as lenalidomide,decreased the CK1α levels
same,"Tumor Volume Change, % Ch = (T − T0)/T0",MKL-1 MCC xenografts; day 0,0.00%
same,"Tumor Volume Change, Abs Ch = T − T0",MKL-1 MCC xenografts; day 0,0.00
same,"Tumor Volume Change, % Ch = (T − T0)/T0",MKL-1 MCC xenografts; day 4,74.88% and 101.33% and 102.10% and 99.96% and 150.37% and 52.58% and 63.66% and 71.12%
same,"Tumor Volume Change, Abs Ch = T − T0",MKL-1 MCC xenografts; day 4,144.53 and 151.67 and 182.72 and 171.42 and 196.53 and 107.98 and 82.85 and 113.80
same,"Tumor Volume Change, % Ch = (T − T0)/T0",MKL-1 MCC xenografts; day 7,172.14% and 170.30% and 232.85% and 199.00% and 277.21% and 108.30% and 219.88% and 209.85%
same,"Tumor Volume Change, Abs Ch = T − T0",MKL-1 MCC xenografts; day 7,332.29 and 254.90 and 416.69 and 341.29 and 362.30 and 222.38 and 286.16 and 335.77
same,"Tumor Volume Change, % Ch = (T − T0)/T0",MKL-1 MCC xenografts; day 11,532.35% and 513.08% and 584.49% and 475.00% and 680.10% and 321.83% and 431.10% and 501.46%
same,"Tumor Volume Change, Abs Ch = T − T0",MKL-1 MCC xenografts; day 11,1027.58 and 768.00 and 1045.97 and 814.62 and 888.86 and 660.89 and 561.06 and 802.36
same,"Tumor Volume Change, % Ch = (T − T0)/T0",MKL-1 MCC xenografts; day 14,811.07% and 861.89% and 936.62% and 702.42% and 1182.50% and 538.29% and 804.69% and 779.36%
same,"Tumor Volume Change, Abs Ch = T − T0",MKL-1 MCC xenografts; day 14,1565.59 and 1290.11 and 1676.13 and 1204.65 and 1545.48 and 1105.37 and 1047.26 and 1246.99
same,"Tumor Volume Change, % Ch = (T − T0)/T0",MKL-1 MCC xenografts; day 18,1406.04% and 1123.01% and 1595.67% and 1146.29% and 1544.08% and 774.41% and 1719.65% and 1318.82%
same,"Tumor Volume Change, Abs Ch = T − T0",MKL-1 MCC xenografts; day 18,2714.05 and 1680.96 and 2855.54 and 1965.88 and 2018.05 and 1590.25 and 2238.02 and 2110.15
same,CK1α protein levels,CK1α [2],reduces CK1α protein rapidly; also recorded: decreases CK1α protein levels
same,CK1α protein levels,CK1α [2]; listed as lenalidomide,levels rapidly decreased
same,Response-rep1,MKL-1 MCC cells; Lenalidomide 5000 nM,98.9539%
same,Response-rep2,MKL-1 MCC cells; Lenalidomide 5000 nM,97.73%
same,Response-rep1,MKL-1 MCC cells; Lenalidomide 10000 nM,83.3296%
same,Response-rep2,MKL-1 MCC cells; Lenalidomide 10000 nM,76.26%
same,Response-rep1,MKL-1 MCC cells; Lenalidomide 15000 nM,69.78%
same,Response-rep2,MKL-1 MCC cells; Lenalidomide 15000 nM,67.82%
same,Response-rep1,MKL-1 MCC cells; Lenalidomide 18000 nM,25.1812%
same,Response-rep2,MKL-1 MCC cells; Lenalidomide 18000 nM,49.26%
same,"relative viability (XTT), untreated = 1",MKL-1 MCC cells; Nutlin-3 or RG7388 level 25 (unit not given),1.143 and 0.8845 and 1.022
same,"relative viability (XTT), untreated = 1",MKL-1 MCC cells; Nutlin-3 or RG7388 level 50 (unit not given),1.089 and 0.9384 and 1.081
same,"relative viability (XTT), untreated = 1",MKL-1 MCC cells; Nutlin-3 or RG7388 level 75 (unit not given),1.027 and 1.061 and 1.086
same,"relative viability (XTT), untreated = 1",MKL-1 MCC cells; Nutlin-3 or RG7388 level 90 (unit not given),1.011 and 0.945 and 0.9521
same,Response,MKL-1 MCC cells; Lenalidomide 5000 nM alone,104.85%
same,Response,MKL-1 MCC cells; Lenalidomide 10000 nM alone,105.06%
same,Response,MKL-1 MCC cells; Lenalidomide 15000 nM alone,107.06%
same,Response,MKL-1 MCC cells; Lenalidomide 18000 nM alone,100.64%
same,MDM4 binding to p53 (co-immunoprecipitation),MDM4 binding to p53,reduces MDM4 binding to p53
same,"p53 activation (p53, P-p53, Ac-p53, p21, PUMA levels)",p53,modest positive effect on p53 levels
